From patent US12617762B2, “Carboxy derivatives with antiinflamatory properties” (Sitryx Therapeutics Limited, priority 2019, dated 2026) come the findings set out here.

The test system of data set [1] is IL-1β cytokine output from THP-1s. Briefly: THP-1 AlphaLISA IL-1β cytokine inhibition assay. The class given is cell-based. The conditions noted are these: Homo sapiens. An outline of the steps:
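THP-1 cells differentiated with PMA for 72 h, pre-incubated with compound 30 min, then LPS-primed 24 h and Nigericin-stimulated 1 h (37° C./5% CO2). Supernatant IL-1β measured by AlphaLISA; percentage inhibition normalised to +LPS (high) and −LPS (low) plate controls.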
Background: Alpha assays give light when donor and acceptor beads are brought close together.

Data set [2] has as its system IL-6 cytokine output from THP-1s. Briefly: THP-1 AlphaLISA IL-6 cytokine inhibition assay. The following applies: Homo sapiens, LPS then nigericin. Format: cell-based. Summed up:
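THP-1 cells differentiated with PMA for 72 h, then pre-incubated with compound 30 min, stimulated with LPS 24 h, then Nigericin 1 h, all at 37° C. Supernatant IL-6 measured by AlphaLISA. Percentage inhibition normalized to +/− LPS plate controls.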

Data set [3] concerns NRF2 (nuclear factor erythroid 2-related factor 2). Description: NRF2 +/-GSH activation assay (DiscoverX PathHunter NRF2 translocation kit, U2OS cells). Format: cell-based. Summed up: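 U2OS PathHunter eXpress cells, 24 h post-plating, treated with compound ±GSH (+GSH arm: 30 min compound–GSH pre-incubation, 6 mM working GSH), then 6 h at 37 °C. NRF2 nuclear translocation read by enzyme-fragment-complementation chemiluminescence; % activation normalised to DMF high and untreated low controls.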

Data set [4] is described as follows: Hepatocyte stability assay, mouse. Format: in vitro ADME. The following applies: mouse, hepatocytes; for hepatocyte CLint at 10 μM: Hepatocyte stability Clint; for half-life at 10 μM: Hepatocyte stability T½. Summed up:
(§1)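 Cryopreserved hepatocytes (viability >70%), 0.5×10^6 cells/mL in Leibovitz buffer, preincubated 10 min at 37° C, then 10 μM compound (0.1% DMSO) in duplicate; sampled 0-60 min, acetonitrile quench, LC-MS/MS. CLint and half-life from ln % remaining vs time; buffer-only incubation as negative control.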

A short description of data set [5]: Hepatocyte stability assay, human. The class given is in vitro ADME. The following applies: human, hepatocytes; for hepatocyte CLint at 10 μM: Hepatocyte stability Clint; for half-life at 10 μM: Hepatocyte stability T½. An outline of the steps: as §1
Where [6] appears, read: THP-1, differentiated THP-1 cells, LPS then nigericin.
[7] abbreviates: THP-1, differentiated THP-1 cells.
The mark [8] stands for this setting: +GSH, 30 minute compound-GSH pre-incubation, read-out: NRF2 activation +GSH EC50.
[9] abbreviates: +GSH, normalised to DMF high control.
Where [10] appears, read: −GSH, U2OS PathHunter cells, 6 hours compound treatment, read-out: NRF2 activation −GSH EC50.
[11] abbreviates: −GSH, normalised to DMF high control.

Read-outs that look alike come from different tables or passages of the source.

By IC50 is commonly meant the concentration that gives 50% inhibition. Lower therefore signals higher potency. Usually EC50 stands for the concentration that produces a half-maximal response. For orientation: hepatocyte CLint means the rate of metabolic loss divided by the concentration. As a reminder, the half-life is how long it takes for the measured level to halve. Consider `C=C(C(=O)O)C(O)c1nc(CCCCCCCC)no1` (stereo not shown) [Example 108, 2-(hydroxy(3-octyl-1,2,4-oxadiazol-5-yl)methyl)acrylic acid], for which the IC50 was 18.4 µM in data set [1] (setting [6]) and 8.3 µM in data set [2] (setting [7]). The EC50 in data set [3] (setting [8]) was found to be 29 µM; in data set [3] (setting [10]) it was 19.7 µM. For the same compound, in data set [3] (setting [9]), the “NRF2 activation +GSH Emax” value came out at 213%. The “NRF2 activation −GSH Emax” value in data set [3] (setting [11]) is 299%. For the same compound, the hepatocyte CLint at 10 μM was found to be 438 µL/min/1e6 cells in data set [4] and 10 µL/min/1e6 cells in data set [5]. Besides, the half-life at 10 μM in data set [4] was found to be 4 min; in data set [5], 163 min.
For `C=C(Cc1nc(CCCCCCC)no1)C(=O)O` [Example 6, 2-((3-heptyl-1,2,4-oxadiazol-5-yl)methyl)acrylic acid], the IC50 in data set [1] (setting [6]) is 24.7 µM; in data set [2] (setting [7]), 26 µM. Further, the EC50 in data set [3] (setting [8]) was 29.1 µM; in data set [3] (setting [10]), 22.9 µM. The “NRF2 activation +GSH Emax” value in data set [3] (setting [9]) is given as 170%. The “NRF2 activation −GSH Emax” value in data set [3] (setting [11]) came to 190%. The hepatocyte CLint at 10 μM in data set [4] was determined as 185 µL/min/1e6 cells; in data set [5], 38 µL/min/1e6 cells. Also, the figures for the half-life at 10 μM in data set [4] and in data set [5] were 9 min and 31 min, respectively.
For `C=C(Cc1nc(C(F)(F)c2ccc(CCCC)cc2)no1)C(=O)O` [Example 91, 2-((3-((4-butylphenyl)difluoromethyl)-1,2,4-oxadiazol-5-yl)methyl)acrylic acid], the IC50 in data set [1] (setting [6]) was 3.8 µM; in data set [2] (differentiated THP-1 cells), 2.4 µM. Further, the EC50 turned out to be 3.4 µM in data set [3] (setting [8]) and 3.2 µM in data set [3] (setting [10]). Further, in data set [3] (setting [9]), the “NRF2 activation +GSH Emax” value stood at 190%. The “NRF2 activation −GSH Emax” value in data set [3] (setting [11]) is given as 231%. The hepatocyte CLint at 10 μM came to 320 µL/min/1e6 cells in data set [4] and 74 µL/min/1e6 cells in data set [5]. Moreover, the half-life at 10 μM in data set [4] is 6 min; in data set [5], 21 min.
On to `C=C(Cc1noc(CCCCCCCC)n1)C(=O)O` [Example 3, 2-((5-octyl-1,2,4-oxadiazol-3-yl)methyl)acrylic acid], for which the IC50 in data set [1] (setting [6]) was 14.6 µM; in data set [2] (setting [7]) it was 4.4 µM. Also, the EC50 came out at 6.9 µM in data set [3] (setting [8]) and 3.7 µM in data set [3] (setting [10]). In addition, the “NRF2 activation +GSH Emax” value in data set [3] (setting [9]) is listed as 199%. For the same compound, the “NRF2 activation −GSH Emax” value in data set [3] (setting [11]) amounted to 218%. In addition, the hepatocyte CLint at 10 μM in data set [4] amounted to 117 µL/min/1e6 cells; in data set [5], 110 µL/min/1e6 cells. The half-life at 10 μM was 12 min in data set [4] and 15 min in data set [5].
Turning to `C=C(Cc1nc(C(C)CCCCCC)no1)C(=O)O` (stereo not shown) [Example 8, 2-((3-(octan-2-yl)-1,2,4-oxadiazol-5-yl)methyl)acrylic acid], the IC50 turned out to be 16.8 µM in data set [1] (setting [6]) and 14 µM in data set [2] (setting [7]). The EC50 in data set [3] (setting [8]) amounted to 28.1 µM; in data set [3] (setting [10]) it was 20.9 µM. For the same compound, the “NRF2 activation +GSH Emax” value in data set [3] (setting [9]) was 167%. For the same compound, in data set [3] (setting [11]), the “NRF2 activation −GSH Emax” value is 175%. Moreover, the hepatocyte CLint at 10 μM was determined as 143 µL/min/1e6 cells in data set [4] and 28 µL/min/1e6 cells in data set [5]. In addition, the figures for the half-life at 10 μM in data set [4] and in data set [5] were 10 min and 51 min, respectively.
`C=C(C(=O)O)C(OC)c1nc(CCCCCCCC)no1` (stereo not shown) [Example 110, 2-(methoxy(3-octyl-1,2,4-oxadiazol-5-yl)methyl)acrylic acid]: the IC50 was > 31.6 µM in data set [1] (setting [6]) and 9.8 µM in data set [2] (differentiated THP-1 cells). Besides, the concentration for a half-maximal effect (EC50) in data set [3] (setting [8]) amounted to 48.8 µM; in data set [3] (setting [10]), 38.9 µM. Besides, the “NRF2 activation +GSH Emax” value in data set [3] (setting [9]) is recorded as 132%. Further, the “NRF2 activation −GSH Emax” value in data set [3] (setting [11]) is reported as 153%. Besides, the hepatocyte CLint at 10 μM in data set [4] and in data set [5] was > 460 µL/min/1e6 cells each time. For the same compound, the half-life at 10 μM in data set [4] and in data set [5] was < 3 min in each case.
On to `C=C(Cc1nc(CCCCCCC(F)(F)C(F)(F)F)no1)C(=O)O` [Example 17, 2-((3-(7,7,8,8,8-pentafluorooctyl)-1,2,4-oxadiazol-5-yl)methyl)acrylic acid], for which the IC50 was 19.3 µM in data set [1] (setting [6]) and 5.3 µM in data set [2] (setting [7]). For the same compound, the EC50 is 8.7 µM in data set [3] (setting [8]) and 5.1 µM in data set [3] (setting [10]). The “NRF2 activation +GSH Emax” value in data set [3] (setting [9]) was 140%. Further, in data set [3] (setting [11]), the “NRF2 activation −GSH Emax” value amounted to 179%. Besides, the figures for the hepatocyte CLint at 10 μM in data set [4] and in data set [5] were 105 µL/min/1e6 cells and 42 µL/min/1e6 cells, respectively. The figures for the half-life at 10 μM in data set [4] and in data set [5] were 12 min and 34 min, respectively.
Turning to `C=C(Cc1nc(CCCCCCCCC)no1)C(=O)O` [Example 53, 2-((3-nonyl-1,2,4-oxadiazol-5-yl)methyl)acrylic acid], the figures for the IC50 in data set [1] (setting [6]) and in data set [2] (setting [7]) were 1.8 µM and 2.6 µM, respectively. The EC50 in data set [3] (setting [8]) and in data set [3] (setting [10]) was 1.8 µM throughout. Further, in data set [3] (setting [9]), the “NRF2 activation +GSH Emax” value was found to be 71%. For the same compound, the “NRF2 activation −GSH Emax” value in data set [3] (setting [11]) came out at 178%. For the same compound, the results for the hepatocyte CLint at 10 μM in data set [4] and in data set [5] were > 460 µL/min/1e6 cells and 329 µL/min/1e6 cells, respectively. The half-life at 10 μM in data set [4] is < 3 min; in data set [5], 4 min.
For `C/C(=C\c1nc(C2(c3ccc(Br)cc3)CC2)no1)C(=O)O` [Example 168], the IC50 in data set [1] (THP-1, Table 3, head to head comparison of exo vs endo double bond compounds) is 33.6 µM; in data set [1] (setting [6]), 33.6 µM; in data set [2] (differentiated THP-1 cells), 51.2 µM. In addition, the EC50 is > 100 µM in data set [3] (setting [8]); 1.4 µM in data set [3] (−GSH, Table 5 exo vs endo comparison, read-out: −GSH EC50); 1.4 µM in data set [3] (setting [10]). For the same compound, the “NRF2 activation +GSH Emax” value in data set [3] (setting [9]) came out at 16%. In data set [3] (−GSH and/or +GSH), the “NRF2 activation, result in words” value is given as “more potent in NRF2 (-GSH) than Example 50”. For the same compound, the “NRF2 activation −GSH Emax” value in data set [3] (setting [11]) was 69%. Moreover, the “−GSH Emax” value in data set [3] (−GSH, normalised to DMF high control, Table 5 exo vs endo comparison) was determined as 69%. Moreover, the hepatocyte CLint at 10 μM in data set [4] came out at 393 µL/min/1e6 cells; in data set [5], 69 µL/min/1e6 cells. Besides, the values for the half-life at 10 μM in data set [4] and in data set [5] were 5 min and 18 min, respectively.
Turning to `C=C(Cc1nc(C2(c3ccc(Cl)cc3)CC2)no1)C(=O)O` [Example 10, 2-((3-(1-(4-chlorophenyl)cyclopropyl)-1,2,4-oxadiazol-5-yl)methyl)acrylic acid], the figures for the IC50 in data set [1] (setting [6]) and in data set [2] (setting [7]) were 10 µM and 26.2 µM, respectively. The EC50 worked out at 45.2 µM in data set [3] (setting [8]) and 36.8 µM in data set [3] (setting [10]). In data set [3] (setting [9]), the “NRF2 activation +GSH Emax” value was 53%. In data set [3] (setting [11]), the “NRF2 activation −GSH Emax” value stood at 67%. The hepatocyte CLint at 10 μM is 125 µL/min/1e6 cells in data set [4] and 27 µL/min/1e6 cells in data set [5]. Further, the half-life at 10 μM amounted to 8 min in data set [4] and 47 min in data set [5].
As to `C=C(Cc1nc(Cc2ccc(C(F)(F)CCCC)cc2)no1)C(=O)O` [Example 93, 2-((3-(4-(1,1-difluoropentyl)benzyl)-1,2,4-oxadiazol-5-yl)methyl)acrylic acid], the IC50 in data set [1] (setting [6]) stood at 16.1 µM; in data set [2] (setting [7]) it was 8.7 µM. Moreover, the results for the EC50 in data set [3] (setting [8]) and in data set [3] (setting [10]) were 14.3 µM and 12.6 µM, respectively. Further, the “NRF2 activation +GSH Emax” value in data set [3] (setting [9]) is 190%. The “NRF2 activation −GSH Emax” value in data set [3] (setting [11]) was 224%. Further, the hepatocyte CLint at 10 μM in data set [4] is > 460 µL/min/1e6 cells; in data set [5], 40 µL/min/1e6 cells. The half-life at 10 μM was < 3 min in data set [4] and 38 min in data set [5].
On to `C=C(Cc1nc(C(F)(F)c2ccc(SC(F)(F)F)cc2)no1)C(=O)O` [Example 155, 2-((3-(difluoro(4-((trifluoromethyl)thio)phenyl)methyl)-1,2,4-oxadiazol-5-yl)methyl)acrylic acid], for which the IC50 in data set [1] (setting [6]) turned out to be 9.1 µM; in data set [2] (differentiated THP-1 cells), 13.1 µM. Also, the EC50 in data set [3] (setting [8]) turned out to be 13.7 µM; in data set [3] (setting [10]), 11.2 µM. Besides, in data set [3] (setting [9]), the “NRF2 activation +GSH Emax” value worked out at 123%. In data set [3] (setting [11]), the “NRF2 activation −GSH Emax” value was 201%. Also, the hepatocyte CLint at 10 μM was found to be 87 µL/min/1e6 cells in data set [4] and 8 µL/min/1e6 cells in data set [5]. Further, the half-life at 10 μM in data set [4] turned out to be 17 min; in data set [5] it was 201 min.
